Tested on: Aβ42
Experiment: In vitro cell screening assay in H4 cells expressing human APP751: Aβ42 by sandwich ELISA
Format: cell-based
Settings: compounds 0.003-10 μM, incubated overnight (16-18 h), sandwich ELISA of supernatant
How it was run: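 Secreted Aβ42 measured by sandwich ELISA, C-terminal-specific capture and 4G8-HRP detection, TMB read at 450 nm, from supernatants of APP751-expressing H4 cells exposed overnight (16-18 h) to 0.003-10 μM compound in Pro293 medium, 0.33% DMSO. Data scaled between DMSO and DAPT controls; EC50 from variable-slope nonlinear regression.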

Structure (SMILES): COc1nc(C2=NOCC(c3ccc(Cl)cc3)N2)ccc1-n1cnc(C)c1 (single isomer, unassigned) [Example 42A, 5-(4-chlorophenyl)-3-(6-methoxy-5-(4-methyl-1H-imidazol-1-yl)pyridin-2-yl)-5,6-dihydro-4H-1,2,4-oxadiazine]
- EC50: > 3000 nM

Structure (SMILES): COc1nc(C2=NOCC(c3sc4ccccc4c3C)N2)ccc1-n1cnc(C)c1 (single isomer, unassigned; (+)) [Example 66B, (+)-3-(6-methoxy-5-(4-methyl-1H-imidazol-1-yl)pyridin-2-yl)-5-(3-methylbenzo [b]thiophen-2-yl)-5,6-dihydro-4H-1,2,4-oxadiazine]
- EC50: 9.1 nM

Structure (SMILES): COc1nc(C2=NOCC(CC3CC3)N2)ccc1-n1cnc(C)c1 (single isomer, unassigned) [Example 159B, 5-(cyclopropylmethyl)-3-(6-methoxy-5-(4-methyl-1H-imidazol-1-yl)pyridin-2-yl)-5,6-dihydro-4H-1,2,4-oxadiazine]
- EC50: 695 nM

Structure (SMILES): COc1nc(C2=NOCC(C3CCC(F)(F)CC3)N2)ccc1-n1cnc(C)c1 (single isomer, unassigned; (+)) [Example 139B, (+)-5-(4,4-difluorocyclohexyl)-3-(6-methoxy-5-(4-methyl-1H-imidazol-1-yl)pyridin-2-yl)-5,6-dihydro-4H-1,2,4-oxadiazine]
- EC50 (Homo sapiens): 201 nM

Structure (SMILES): COc1nc(C2=NOCC(c3cn(C4CC4)c4cc(F)ccc34)N2)ccc1-n1cnc(C)c1 (single isomer, unassigned; (+)) [Example 228B, (+)-5-(1-cyclopropyl-6-fluoro-1H-indol-3-yl)-3-(6-methoxy-5-(4-methyl-1H-imidazol-1-yl)pyridin-2-yl)-5,6-dihydro-4H-1,2,4-oxadiazine]
- EC50: 8.4 nM

Structure (SMILES): COc1nc(C2=NOCC(c3cn(C)c4ncccc34)N2)ccc1-n1cnc(C)c1 (single isomer, unassigned; (+)) [Example 195B, (+)-3-(6-methoxy-5-(4-methyl-1H-imidazol-1-yl)pyridin-2-yl)-5-(1-methyl-1H-pyrrolo [2,3-b]pyridin-3-yl)-5,6-dihydro-4H-1,2,4-oxadiazine]
- EC50: 163 nM

Structure (SMILES): COc1nc(C2=NOC[C@H](c3cc4ccccc4o3)N2C)ccc1-n1cnc(C)c1 [Example 32, (R)-5-(Benzofuran-2-yl)-3-(6-methoxy-5-(4-methyl-1H-imidazol-1-yl)pyridin-2-yl)-4-methyl-5,6-dihydro-4H-1,2,4-oxadiazine]
- EC50 (Homo sapiens): 390 nM

Structure (SMILES): COc1nc(C2=NOCC(c3cn(C)c4ccc(F)cc34)N2)ccc1-n1cnc(C)c1 (single isomer, unassigned; (-)) [Example 190A, (−)-5-(5-fluoro-1-methyl-1H-indol-3-yl)-3-(6-methoxy-5-(4-methyl-1H-imidazol-1-yl)pyridin-2-yl)-5,6-dihydro-4H-1,2,4-oxadiazine]
- EC50: 287 nM

Structure (SMILES): COc1nc(C2=NOCC(c3coc4ccccc34)N2)ccc1-n1cnc(C)c1 (single isomer, unassigned) [Example 38B, 5-(benzofuran-3-yl)-3-(6-methoxy-5-(4-methyl-1H-imidazol-1-yl)pyridin-2-yl)-5,6-dihydro-4H-1,2,4-oxadiazine]
- EC50: 22.4 nM

Structure (SMILES): COc1nc(C2=NOCC(c3ccc(F)c(Cl)c3)N2)ccc1-n1cnc(C)c1 (single isomer, unassigned; (-)) [Example 108A, (−)-5-(3-chloro-4-fluorophenyl)-3-(6-methoxy-5-(4-methyl-1H-imidazol-1-yl)pyridin-2-yl)-5,6-dihydro-4H-1,2,4-oxadiazine]
- EC50: 2630 nM

Structure (SMILES): COc1nc(C2=NOCC(c3ccc(C)cc3)N2)ccc1-n1cnc(C)c1 (single isomer, unassigned; (-)) [Example 227A, (−)-3-(6-methoxy-5-(4-methyl-1H-imidazol-1-yl)pyridin-2-yl)-5-(p-tolyl)-5,6-dihydro-4H-1,2,4-oxadiazine]
- EC50: 958 nM

Structure (SMILES): COc1nc(C2=NOCC(c3oc4ccc(F)cc4c3C)N2)ccc1-n1cnc(C)c1 (single isomer, unassigned; (-)) [Example 101A, (−)-5-(5-fluoro-3-methylbenzofuran-2-yl)-3-(6-methoxy-5-(4-methyl-1H-imidazol-1-yl)pyridin-2-yl)-5,6-dihydro-4H-1,2,4-oxadiazine]
- EC50: 1570 nM

Structure (SMILES): COc1nc(C2=NOCC(c3cc(F)c(Cl)c(F)c3)N2)ccc1-n1cnc(C)c1 (single isomer, unassigned; (-)) [Example 267A, (−)-5-(4-chloro-3,5-difluorophenyl)-3-(6-methoxy-5-(4-methyl-1H-imidazol-1-yl)pyridin-2-yl)-5,6-dihydro-4H-1,2,4-oxadiazine]
- EC50: > 3000 nM

Structure (SMILES): COc1nc(C2=NOCC(c3cn(C)c4cc(F)c(Cl)cc34)N2)ccc1-n1cnc(C)c1 (single isomer, unassigned; (+)) [Example 216B, (+)-5-(5-chloro-6-fluoro-1-methyl-1H-indol-3-yl)-3-(6-methoxy-5-(4-methyl-1H-imidazol-1-yl)pyridin-2-yl)-5,6-dihydro-4H-1,2,4-oxadiazine]
- EC50: 4.2 nM

Structure (SMILES): COc1nc(C2=NOCC(c3ccc(C(C)(C)O)cc3)N2)ccc1-n1cnc(C)c1 (single isomer, unassigned; (-)) [Example 268A, (−)-2-(4-(3-(6-methoxy-5-(4-methyl-1H-imidazol-1-yl)pyridin-2-yl)-5,6-dihydro-4H-1,2,4-oxadiazin-5-yl)phenyl)propan-2-ol]
- EC50: 1440 nM

Structure (SMILES): COc1nc(C2=NOCC(c3cc4cc(C(F)(F)F)ccc4o3)N2)ccc1-n1cnc(C)c1 (single isomer, unassigned; (-)) [Example 259A, (−)-3-(6-methoxy-5-(4-methyl-1H-imidazol-1-yl)pyridin-2-yl)-5-(5-(trifluoromethyl)benzofuran-2-yl)-5,6-dihydro-4H-1,2,4-oxadiazine]
- EC50: 2460 nM

Structure (SMILES): COc1nc(C2=NOCC(c3cn(C)c4cc(C(F)(F)F)ccc34)N2)ccc1-n1cnc(C)c1 (single isomer, unassigned; (-)) [Example 197B, (−)-3-(6-methoxy-5-(4-methyl-1H-imidazol-1-yl)pyridin-2-yl)-5-(1-methyl-6-(trifluoromethyl)-1H-indol-3-yl)-5,6-dihydro-4H-1,2,4-oxadiazine]
- EC50: 90.5 nM

Structure (SMILES): COc1nc(C2=NOCC(c3cn(C)c4ccc(Cl)cc34)N2)ccc1-n1cnc(C)c1 (single isomer, unassigned; (+)) [Example 193B, (+)-5-(5-chloro-1-methyl-1H-indol-3-yl)-3-(6-methoxy-5-(4-methyl-1H-imidazol-1-yl)pyridin-2-yl)-5,6-dihydro-4H-1,2,4-oxadiazine]
- EC50: 4.9 nM

Structure (SMILES): COc1nc(C2=NOCC(c3cn(C)c4c(F)cccc34)N2)ccc1-n1cnc(C)c1 (single isomer, unassigned; (-)) [Example 231A, (−)-5-(7-fluoro-1-methyl-1H-indol-3-yl)-3-(6-methoxy-5-(4-methyl-1H-imidazol-1-yl)pyridin-2-yl)-5,6-dihydro-4H-1,2,4-oxadiazine]
- EC50: 229 nM

Structure (SMILES): CCn1cc(C2CON=C(c3ccc(-n4cnc(C)c4)c(OC)n3)N2)c2cc(Cl)c(F)cc21 (single isomer, unassigned; (-)) [Example 73A, (−)-5-(5-chloro-1-ethyl-6-fluoro-1H-indol-3-yl)-3-(6-methoxy-5-(4-methyl-1H-imidazol-1-yl)pyridin-2-yl)-5,6-dihydro-4H-1,2,4-oxadiazine]
- EC50: 54.9 nM
